# Measured values: PubChem BioAssay AID1159563 (GlaxoSmithKline (GSK), 2015)
# Activity calls are given as the source filed them. The rule behind the calls is not given here.
# System: HepG2 cytotoxicity
# Assay: HepG2 cell cytotoxicity, cytotoxicity control (AID 1159563)
row,SMILES,IC50
1,COc1ccccc1C(=O)Nc1nnc(-c2ccc3c(c2)OCO3)s1,> 100 µM (inactive)
2,CCCCCNC(=O)c1c[nH]c2ccc(S(=O)(=O)N(C)c3ccc(OCC)cc3)cc2c1=O,> 100 µM (inactive)
3,Cc1ccc2onc(Nc3ccnc(Nc4cccc(S(C)(=O)=O)c4)n3)c2c1,50 µM
4,O=C(c1ccc(O)c(Cl)c1)N1CCN(c2cnccn2)CC1,> 100 µM (inactive)
5,CC(C)(C)CC(=O)NCCc1csc(-c2ccc(F)cc2)n1,> 100 µM (inactive)
6,O=C(CN(Cc1ccccn1)Cc1ccccn1)NCc1ccc(-c2csnn2)cc1,25 µM
7,CCS(=O)(=O)c1cccc(C(=O)Nc2nc(-c3ccccn3)cs2)c1,25 µM
8,O=C(CN1CCN(c2ccccn2)CC1)Nc1cc(S(=O)(=O)N2CCCCCC2)ccc1Cl,> 100 µM (inactive)
9,O=c1[nH]c(C=Cc2cccc(OCCOc3ccccc3)c2)nc(O)c1[N+](=O)[O-],> 100 µM (inactive)
10,NC(=O)c1cc(F)ccc1Nc1nc(NC2CCC(O)CC2)ncc1Br (stereo not drawn),50 µM
11,O=c1cc(NCCCNC2CCOc3c(I)cc(Cl)cc32)[nH]c2ccccc12 (stereo not drawn),63 µM
12,O=[N+]([O-])c1ccc(C2=CC(c3ccccc3)=NCCN2)cc1,50 µM
13,Cc1cc2cncn2c(C2CCCCN2C(=O)c2cccs2)n1 (stereo not drawn),> 100 µM (inactive)
14,CCc1nn(-c2ncc(F)c(NC(C)C)n2)c(N)c1C1CCCCC1,32 µM
15,CC(C)(C)CC(=O)NCc1noc(COc2ccccc2)n1,> 100 µM (inactive)
16,CCCN(Cc1ccc(OC)c(OC)c1)Cc1cc(=O)c2c(C)cc(C)cc2[nH]1,63 µM
17,Cc1nn(C)c(Cl)c1CN(Cc1cccnc1)Cc1ccsc1,> 100 µM (inactive)
18,O=C(Nc1nc(-c2ccc(S(=O)(=O)N3CCOCC3)cc2)cs1)c1ccc([N+](=O)[O-])cc1,> 100 µM (inactive)
19,CN1C(=O)c2ccccc2Sc2ccc(NC(=O)NCc3ccco3)cc21,> 100 µM (inactive)
20,c1ccc(-c2nc(NCc3ccco3)c3ccccc3n2)nc1,> 100 µM (inactive)
21,Nc1ncnc2c1ncn2[C@@H]1O[C@H](CO)C[C@H]1O,> 100 µM (inactive)
22,Cc1ccc(S(=O)(=O)Nc2ccc(CN3CCN(C(=O)c4cccc(C)c4)CC3)cc2)cc1,> 100 µM (inactive)
23,CCN(Cc1nc2ccc(C(=O)N3CCN(c4ncccn4)CC3)cc2[nH]1)C1CCCc2cccnc21 (stereo not drawn),> 100 µM (inactive)
24,CC(=O)NC1(c2ccccc2)CCN(CC(=O)Nc2ccccc2-c2ccccc2)CC1,> 100 µM (inactive)
25,Cc1cc(N2CCc3ccccc3C2)nc(Nc2ccc(S(=O)(=O)N3CCOCC3)cc2)n1,> 100 µM (inactive)

row,SMILES,IC50
1,O=C(CSc1ccc(-c2ccccn2)nn1)Nc1ccc(Cl)cc1,> 100 µM (inactive)
2,CC(=O)Nc1ccc(-c2csc(NC(=O)c3ccc([N+](=O)[O-])s3)n2)cc1,50 µM
3,COc1ccc(Nc2nccc(N(C)c3n[nH]c4c(F)cccc34)n2)cc1S(C)(=O)=O,20 µM
4,Cc1cccc(NS(=O)(=O)c2ccc3c(c2)C(=O)c2cc(S(=O)(=O)Nc4cccc(C)c4C)ccc2-3)c1C,> 100 µM (inactive)
5,COc1ccc(OC)c(S(=O)(=O)N(Cc2c(F)cccc2F)[C@@H]2CCN(C#N)C2)c1,79 µM
6,COc1ccc(C(=O)Nc2ccc(NC(=O)CO)cc2)cc1,> 100 µM (inactive)
7,COc1ccc(-c2cc(C)no2)cc1S(=O)(=O)Nc1ccc(F)c(Cl)c1,79 µM
8,O=C(CN1CCN(S(=O)(=O)c2cccc([N+](=O)[O-])c2)CC1)Nc1ccc(Oc2ccccc2)cc1,> 100 µM (inactive)
9,O=C(CSc1ccc(F)cc1)N[C@@H](Cc1cnc[nH]1)C(=O)NCCc1ccccc1,> 100 µM (inactive)
10,O=C(Nc1ccc(C(=O)N2CCCC2c2ccc3c(c2)OCCCO3)cc1)c1ccco1 (stereo not drawn),> 100 µM (inactive)
11,Cc1c(C#N)c([N+](=O)[O-])nn1Cc1cccc(Cl)c1Cl,79 µM
12,O=C(CC1(O)C(=O)N(Cc2ccccc2)c2ccc(Br)cc21)c1cccnc1 (stereo not drawn),63 µM
13,Cc1nc(-c2nc(NCc3ccc(Cl)cc3)c3cccnc3c2O)n[nH]1,16 µM
14,O=C(Cc1ccccc1)Nc1ccccc1C(=O)Nc1nccs1,> 100 µM (inactive)
15,CCOc1ccc(NC(=O)c2ccc(NC(=O)NC3CCCCC3)cc2)cc1,> 100 µM (inactive)
16,COc1cc(F)c2ncc(F)c(CCN3CC[C@H](NCc4cc5c(cn4)OCS5)[C@@H](O)C3)c2c1,50 µM
17,CCCC(=O)N(Cc1ccccn1)c1nc2ccccc2s1,> 100 µM (inactive)
18,CN(C)Cc1cccc(Nc2nccc(-c3ccc(NCCN)c(C#N)c3)n2)c1,25 µM
19,CC(C)c1nn(-c2nc(N)nc(-c3ccccn3)n2)c(N)c1C1CCCCC1,20 µM
20,CC(Cn1ccnc1)NC(=O)C=Cc1ccc(Cl)cc1 (stereo not drawn),> 100 µM (inactive)
21,CS(=O)(=O)c1ccc(CC(=O)Nc2nc(-c3ccc(Cl)s3)cs2)cc1,> 100 µM (inactive)
22,CN1CCC(N(C)c2nccc(N3CCN(C(=O)c4cccc(-c5cccnc5)c4)CC3)n2)CC1,40 µM
23,O=C(Nc1n[nH]c(-c2ccccn2)n1)C1CC1c1ccccc1 (stereo not drawn),> 100 µM (inactive)
24,O=C(NC1CCN(C2Cc3ccc(NS(=O)(=O)c4cc(F)cc(F)c4)cc3C2)CC1)C1CC1 (stereo not drawn),> 100 µM (inactive)
25,Cc1nccn1C1CCCN(C(=O)c2cc3c(F)cccc3s2)C1 (stereo not drawn),> 100 µM (inactive)

row,SMILES,IC50
1,CCn1c(NC(=O)Cc2ccc(F)cc2)nc2ccccc21,> 100 µM (inactive)
2,N#Cc1cc([N+](=O)[O-])ccc1NC1CCCCCC1,> 100 µM (inactive)
3,Cc1[nH]n2c(=O)c3c(nc2c1-c1ccc(Br)cc1)CCCC3,> 100 µM (inactive)
4,O=C1CCCCCC1(Cc1cnc[nH]1)c1ccc(Cl)cc1Cl (stereo not drawn),79 µM
5,NC(=O)c1ccccc1Nc1nc(NC2CCCCC2)nc2[nH]ccc12,20 µM
6,Cc1c(C(C)NC(=O)Nc2cccc(Cl)c2)sc2ncnn12 (stereo not drawn),> 100 µM (inactive)
7,Fc1ccc(Nc2nc(-c3ccccn3)cs2)cc1,> 100 µM (inactive)
8,O=C(Nc1ccc(C(F)(F)F)cc1)Nc1cccc([N+](=O)[O-])c1,10 µM
9,CCOc1ccc2nc(NC(=O)c3ccc([N+](=O)[O-])s3)sc2c1,32 µM
10,O=C(COc1ncnc2cc([N+](=O)[O-])ccc12)NC(=O)NC1CCCCC1,> 100 µM (inactive)
11,CCn1nccc1CN(C)C(=O)C=Cc1ccc(Cl)cc1,> 100 µM (inactive)
12,Cc1ccc(NC(=O)c2ccc(Cl)c(NC(=O)c3ccc([N+](=O)[O-])cc3)c2)cc1,> 100 µM (inactive)
13,Nc1nc(-c2ccccn2)nc(N)c1Cc1c(F)cccc1Cl,20 µM
14,COc1ccc(-c2csc(NC(=O)c3ccc([N+](=O)[O-])s3)n2)cc1OC,10 µM
15,COc1ncc(-c2ccc3nccc(-c4ccncc4)c3c2)cc1NS(C)(=O)=O,> 100 µM (inactive)
16,CC(=Cc1ccccc1)CN1CCC(=O)N(Cc2cccnc2)CC1,> 100 µM (inactive)
17,COc1ccc2ncc(=O)n(CCN3CCC(NCc4ccc(-c5cccs5)cc4)CC3)c2n1,13 µM
18,CCOc1ccc(N(C)S(=O)(=O)c2ccc3[nH]cc(C(=O)NC4CCCC4)c(=O)c3c2)cc1,50 µM
19,C[C@@H](Oc1cc(-n2cnc3ccc(O[C@H]4CCNC4)cc32)sc1C(N)=O)c1ccccc1Cl,16 µM
20,O=C(c1ccccc1)N1CCC(C(=O)N2CCC(Oc3ccccc3Cl)CC2)CC1,> 100 µM (inactive)
21,O=C(CN(c1cccc(C(F)(F)F)c1)S(=O)(=O)c1ccc(Cl)cc1)NCc1ccc(F)c(F)c1,> 100 µM (inactive)
22,O=C(NCCc1csc(-c2ccc(F)cc2)n1)c1ccco1,> 100 µM (inactive)
23,CNS(=O)(=O)c1ccccc1Nc1nc(Nc2cc(C)nn2C)ncc1Cl,4 µM
24,Cn1ccnc1-c1nc(NCc2ccccc2Cl)cc(C2CC2)n1,20 µM
25,Cn1nccc1NC(=O)Cn1ccc(-c2ccncc2)n1,> 100 µM (inactive)

row,SMILES,IC50
1,CCc1ccc2nc(NC(=O)c3cc(N4CCOCC4)ccn3)sc2c1,> 100 µM (inactive)
2,O=C(Nc1ccc(Br)cn1)c1ccc(Cn2cnc([N+](=O)[O-])n2)cc1,> 100 µM (inactive)
3,O=C(Nc1ccc(C(F)(F)F)cc1)NC1(C(=O)NCc2ccco2)CCCCC1,> 100 µM (inactive)
4,Cc1nn2c(NCCCO)c3c(nc2c1-c1cccs1)CCC3,> 100 µM (inactive)
5,CC(C)c1sc(Cl)nc1C(=O)NCCc1nc(C(=O)Nc2ccc3c(c2)OCO3)cs1,> 100 µM (inactive)
6,COc1ccc(-c2nc3ncccc3o2)cc1NC(=O)c1cccs1,> 100 µM (inactive)
7,COc1ccc([N+](=O)[O-])cc1NC(=O)Nc1cccc(Cl)c1,> 100 µM (inactive)
8,Cc1cccnc1NC(=O)c1cccc(OCc2c(C)noc2C)c1,> 100 µM (inactive)
9,Cc1nnnn1-c1cccc(C(=O)N2CCC[C@@]3(C)c4ncncc4CCC23)c1 (stereo partly drawn),> 100 µM (inactive)
10,COc1cc(-c2nc(N3CCOCC3)sc2-c2ccnc(NC3CCOCC3)n2)ccc1Cl,> 100 µM (inactive)
11,COc1cnc2ccc(=O)n(CCN3CCC(NC(=O)c4ccc(Cl)cc4)CC3)c2c1,> 100 µM (inactive)
12,O=C(CN(Cc1ccccn1)Cc1ccccn1)NC1Cc2ccccc2C1,> 160 µM (inactive)
13,N#CN1CC[C@@H](NC(=O)Nc2ccccc2Oc2ccccc2)C1,40 µM
14,CC(C)(C)C(=O)Nc1cc(C2CC2)nn1-c1nc2c(c(=O)[nH]1)CCCC2,> 100 µM (inactive)
15,COc1ccc(Cl)cc1CC(=O)Nc1n[nH]c(-c2ccccn2)n1,32 µM
16,O=C(O)[C@H]1C[C@@H]1c1ccc(-c2ccc(CN(CCc3ccccn3)C(=O)C3CCC3)cc2)cc1,> 100 µM (inactive)
17,CNC(=O)C1Cc2ccccc2N1C(=O)Cc1ccc(F)cc1 (stereo not drawn),> 100 µM (inactive)
18,Cc1ccc(S(=O)(=O)Cn2nnnc2C(c2cccnc2)N2CCN(c3ccccc3)CC2)cc1 (stereo not drawn),> 100 µM (inactive)
19,NC(=O)c1cc(NC(=O)c2ccccc2COc2ccccc2)ccc1Cl,> 100 µM (inactive)
20,COc1cc(Cl)c(C)cc1NC(=O)c1ccc([N+](=O)[O-])s1,32 µM
21,Cc1cc(NC(=O)C2CCCCC2)n(-c2nc3c(c(=O)[nH]2)CCC3)n1,50 µM
22,COc1ccc2ncc(=O)n(CCN3CCOC(CNCc4ccc(C(F)(F)F)cc4F)C3)c2n1 (stereo not drawn),> 100 µM (inactive)
23,COc1ncc(-c2ccc3ncnc(N4CCOCC4)c3c2)cc1NS(C)(=O)=O,> 100 µM (inactive)
